Earlier results as cited in patent US20120027718A1, “COMBINATION THERAPY WITH GLATIRAMER ACETATE AND RASAGILINE FOR THE TREATMENT OF MULTIPLE SCLEROSIS” (Teva Pharmaceutical Industries, Ltd., priority 2005, published 2012).

Tests used:
stroke models = settings: in vivo
[1] = test system: models of traumatic head injury; settings: in vivo

| Compound | efficacy in stroke models (stroke models) | efficacy in models of traumatic head injury [1] | relapse rates, progression of disability, appearance of new lesions by MRI and appearance of black holes (multiple sclerosis (MS); daily subcutaneous injections, 20 mg/injection) | efficacy in treating multiple sclerosis (multiple sclerosis (MS); human, in vivo) |
| --- | --- | --- | --- | --- |
| C#CCN[C@@H]1CCc2ccccc21 [Rasagiline, R(+)-N-propargyl-1-aminoindan] | effective | effective | – | – |
| L-glutamic acid polymer with L-alanine, L-lysine and L-tyrosine, acetate (salt) [Glatiramer acetate] | – | – | reduce | effective |
